The values that follow come from patent publication US20250122219A1 (priority 2023, published 2025).

One data set has as its system HIV-1 (IIIB). The data set is described as follows: Antiviral assay in MT-4 cells. The class given is cell-based. The protocol: (§1) Compounds were tested in a high-throughput 384-well assay format for their ability to inhibit the replication of HIV-1 (IIIB) in MT-4 cells. Compounds were serially diluted (1.3) in DMSO on 384-well polypropylene plates and further diluted 200-fold into complete RPMI media (10% FBS, 1% P/S) using the Biotek Micro Flow and Labcyte ECHO acoustic dispenser. Each plate contained up to 8 test compounds, with negative (No Drug Control) and 5 μM AZT positive controls. MT-4 cells were pre-infected with 10 μL of either RPMI (mock-infected) or a fresh 1:250 dilution of HIV-1 IIIB concentrated virus stock. Infected and uninfected MT-4 cells were further diluted in complete RPMI media and added to each plate using a Micro Flow dispenser. After 5 days incubation in a humidified and temperature controlled incubator (37° C.), Cell Titer Glo (Promega) was added to the assay plates and chemiluminescence read using an Envision plate-reader.

Data set [1] can be described thus: Cytotoxicity assay in MT-4 cells. The class given is cell-based. As to conditions: human; uninfected MT-4 cells, 5 days incubation, Cell Titer Glo; read-out: MT4 CC50. The protocol:
as §1
Assays were performed as above except uninfected MT-4 cells were added to each well containing test compound. In addition, […] puromycin was added to the last column of each assay plate to assess a base level of cytotoxicity.
In general terms: ATP-based viability assays read luminescence as a measure of living cells.

Where [2] appears, read: Human immunodeficiency virus 1, MT4, 120 h, HIV-1 IIIB in MT-4 cells, 5 days incubation, Cell Titer Glo, read-out: MT4 EC50.

Usually EC50 stands for the concentration that produces a half-maximal response. Broadly, the CC50 is the concentration at which the toxic effect on the cells reaches its halfway point.

Read-outs that look alike come from different tables or passages of the source.

As to `CCCCCCCCCCCCCC(=O)Oc1c2n(cc(C(=O)NCc3ccc(F)cc3F)c1=O)[C@@H]1CN(C2=O)[C@@H](C)CC[C@]12CC(OC)=NO2` [Example 26, (3′S,5S,7′R)-10′-((2,4-difluorobenzyl)carbamoyl)-3-methoxy-3′-methyl-1′,11′-dioxo-1′,4′,5′,11′-tetrahydro-3′H,4H,7′H-spiro[isoxazole-5,6′-[2,7]methanopyrido[1,2-a][1,4]diazonin]-12′-yl tetradecanoate], in the data set on HIV-1 (IIIB) (setting [2]), the 50% effective concentration (EC50) was 2.62 nM. Moreover, in data set [1], the CC50 at 5 days worked out at 22600 nM.

Take `CCCCCCCCCCCCCCCC(=O)Oc1c2n(cc(C(=O)NCc3ccc(F)cc3F)c1=O)[C@@H]1CN(C2=O)[C@@H](C)CC[C@]12CC(OC)=NO2` [Example 27, (3′S,5S,7′R)-10′-((2,4-difluorobenzyl)carbamoyl)-3-methoxy-3′-methyl-1′,11′-dioxo-1′,4′,5′,11′-tetrahydro-3′H,4H,7′H-spiro[isoxazole-5,6′-[2,7]methanopyrido[1,2-a][1,4]diazonin]-12′-yl palmitate]: the EC50 with HIV-1 (IIIB) (setting [2]) was determined as 4.5 nM. Besides, the CC50 at 5 days in data set [1] is ≥ 50000 nM.

Consider `COC1=NO[C@@]2(CC[C@H](C)N3C[C@H]2n2cc(C(=O)NCc4ccc(F)cc4F)c(=O)c(OC(C)=O)c2C3=O)C1` [Example 28, (3′S,5S,7′R)-10′-((2,4-difluorobenzyl)carbamoyl)-3-methoxy-3′-methyl-1′,11′-dioxo-1′,4′,5′,11′-tetrahydro-3′H,4H,7′H-spiro[isoxazole-5,6′-[2,7]methanopyrido[1,2-a][1,4]diazonin]-12′-yl acetate], for which the EC50 with HIV-1 (IIIB) (setting [2]) was 1.72 nM. In data set [1], the CC50 at 5 days stood at 11600 nM.

As to `CCCCC(=O)Oc1c2n(cc(C(=O)NCc3ccc(F)cc3F)c1=O)[C@@H]1CN(C2=O)[C@@H](C)CC[C@]12CC(OC)=NO2` [Example 29, (3′S,5S,7′R)-10′-((2,4-difluorobenzyl)carbamoyl)-3-methoxy-3′-methyl-1′,11′-dioxo-1′,4′,5′,11′-tetrahydro-3′H,4H,7′H-spiro[isoxazole-5,6′-[2,7]methanopyrido[1,2-a][1,4]diazonin]-12′-yl pentanoate], the EC50 in the data set with HIV-1 (IIIB) (setting [2]) stood at 1.61 nM. Besides, the CC50 at 5 days in data set [1] was found to be 12300 nM.

For the compound `COC1=NO[C@@]2(CC[C@H](C)N3C[C@H]2n2cc(C(=O)NCc4ccc(F)cc4F)c(=O)c(OC(=O)OC(C)C)c2C3=O)C1` [Example 30, (3′S,5S,7′R)-10′-((2,4-difluorobenzyl)carbamoyl)-3-methoxy-3′-methyl-1′,11′-dioxo-1′,4′,5′,11′-tetrahydro-3′H,4H,7′H-spiro[isoxazole-5,6′-[2,7]methanopyrido[1,2-a][1,4]diazonin]-12′-yl isopropyl carbonate], the EC50 in the data set on HIV-1 (IIIB) (Human immunodeficiency virus 1, IIIB, MT4, 120 h, read-out: MT4 EC50 (nM)) amounted to 1.3 nM. For the same compound, the CC50 at 5 days in data set [1] came out at 12600 nM.

Consider `CCCC/C=C\CCCCCCCC(=O)Oc1c2n(cc(C(=O)NCc3ccc(F)cc3F)c1=O)[C@@H]1CN(C2=O)[C@@H](C)CC[C@]12CC(OC)=NO2` [Example 31, (3′S,5S,7′R)-10′-((2,4-difluorobenzyl)carbamoyl)-3-methoxy-3′-methyl-1′,11′-dioxo-1′,4′,5′,11′-tetrahydro-3′H,4H,7′H-spiro[isoxazole-5,6′-[2,7]methanopyrido[1,2-a][1,4]diazonin]-12′-yl (Z)-tetradec-9-enoate], for which, in the data set on HIV-1 (IIIB) (setting [2]), the EC50 is 2.39 nM. Besides, the CC50 at 5 days in data set [1] came to 15700 nM.

With `CCC(=O)Oc1c2n(cc(C(=O)NCc3ccc(F)cc3F)c1=O)[C@@H]1CN(C2=O)[C@@H](C)CC[C@]12CC(OC)=NO2` [Example 32, (3′S,5S,7′R)-10′-((2,4-difluorobenzyl)carbamoyl)-3-methoxy-3′-methyl-1′,11′-dioxo-1′,4′,5′,11′-tetrahydro-3′H,4H,7′H-spiro[isoxazole-5,6′-[2,7]methanopyrido[1,2-a][1,4]diazonin]-12′-yl propionate], the half-maximal effective concentration (EC50) in the data set with HIV-1 (IIIB) (setting [2]) was determined as 1.18 nM. In addition, the half-maximal cytotoxic concentration (CC50) at 5 days in data set [1] worked out at 31700 nM.

In the case of `CCC(=O)Oc1c2n(cc(C(=O)NCc3ccc(F)cc3F)c1=O)[C@@H]1CN(C2=O)[C@@H](C)CC[C@]12CC(C)=NO2` [Example 33, (3′S,5S,7′R)-10′-((2,4-difluorobenzyl)carbamoyl)-3,3′-dimethyl-1′,11′-dioxo-1′,4′,5′,11′-tetrahydro-3′H,4H,7′H-spiro[isoxazole-5,6′-[2,7]methanopyrido[1,2-a][1,4]diazonin]-12′-yl propionate], in the data set with HIV-1 (IIIB) (setting [2]), the concentration for a half-maximal effect (EC50) amounted to 1.42 nM. For the same compound, the CC50 at 5 days in data set [1] came out at 22600 nM.

For `CCCC(=O)Oc1c2n(cc(C(=O)NCc3ccc(F)cc3F)c1=O)[C@@H]1CN(C2=O)[C@@H](C)CC[C@]12CC(OC)=NO2` [Example 34, (3′S,5S,7′R)-10′-((2,4-difluorobenzyl)carbamoyl)-3-methoxy-3′-methyl-1′,11′-dioxo-1′,4′,5′,11′-tetrahydro-3′H,4H,7′H-spiro[isoxazole-5,6′-[2,7]methanopyrido[1,2-a][1,4]diazonin]-12′-yl butyrate], the EC50 in the data set with HIV-1 (IIIB) (setting [2]) was determined as 0.218 nM. Also, the CC50 at 5 days in data set [1] stood at 16300 nM.

`CCCC(=O)Oc1c2n(cc(C(=O)NCc3ccc(F)cc3F)c1=O)[C@@H]1CN(C2=O)[C@@H](C)CC[C@]12CC(C)=NO2` [Example 35, (3′S,5S,7′R)-10′-((2,4-difluorobenzyl)carbamoyl)-3,3′-dimethyl-1′,11′-dioxo-1′,4′,5′,11′-tetrahydro-3′H,4H,7′H-spiro[isoxazole-5,6′-[2,7]methanopyrido[1,2-a][1,4]diazonin]-12′-yl butyrate]: the half-maximal effective concentration (EC50) in the data set on HIV-1 (IIIB) (setting [2]) worked out at 0.203 nM. For the same compound, the half-maximal cytotoxic concentration (CC50) at 5 days in data set [1] was 14100 nM.

As to `CCCCCC(=O)Oc1c2n(cc(C(=O)NCc3ccc(F)cc3F)c1=O)[C@@H]1CN(C2=O)[C@@H](C)CC[C@]12CC(OC)=NO2` [Example 36, (3′S,5S,7′R)-10′-((2,4-difluorobenzyl)carbamoyl)-3-methoxy-3′-methyl-1′,11′-dioxo-1′,4′,5′,11′-tetrahydro-3′H,4H,7′H-spiro[isoxazole-5,6′-[2,7]methanopyrido[1,2-a][1,4]diazonin]-12′-yl hexanoate], the concentration for a half-maximal effect (EC50) with HIV-1 (IIIB) (setting [2]) was 0.345 nM. In data set [1], the CC50 at 5 days was 19600 nM.

As to `CCCCCC(=O)Oc1c2n(cc(C(=O)NCc3ccc(F)cc3F)c1=O)[C@@H]1CN(C2=O)[C@@H](C)CC[C@]12CC(C)=NO2` [Example 37, (3′S,5S,7′R)-10′-((2,4-difluorobenzyl)carbamoyl)-3,3′-dimethyl-1′,11′-dioxo-1′,4′,5′,11′-tetrahydro-3′H,4H,7′H-spiro[isoxazole-5,6′-[2,7]methanopyrido[1,2-a][1,4]diazonin]-12′-yl hexanoate], the EC50 in the data set with HIV-1 (IIIB) (setting [2]) stood at 0.403 nM. For the same compound, the CC50 at 5 days in data set [1] was 17400 nM.

As to `CCCCCCC(=O)Oc1c2n(cc(C(=O)NCc3ccc(F)cc3F)c1=O)[C@@H]1CN(C2=O)[C@@H](C)CC[C@]12CC(OC)=NO2` [Example 38, (3′S,5S,7′R)-10′-((2,4-difluorobenzyl)carbamoyl)-3-methoxy-3′-methyl-1′,11′-dioxo-1′,4′,5′,11′-tetrahydro-3′H,4H,7′H-spiro[isoxazole-5,6′-[2,7]methanopyrido[1,2-a][1,4]diazonin]-12′-yl heptanoate], the EC50 in the data set on HIV-1 (IIIB) (setting [2]) turned out to be 0.331 nM. Also, the CC50 at 5 days in data set [1] is 25700 nM.

For `CCCCCCC(=O)Oc1c2n(cc(C(=O)NCc3ccc(F)cc3F)c1=O)[C@@H]1CN(C2=O)[C@@H](C)CC[C@]12CC(C)=NO2` [Example 39, (3′S,5S,7′R)-10′-((2,4-difluorobenzyl)carbamoyl)-3,3′-dimethyl-1′,11′-dioxo-1′,4′,5′,11′-tetrahydro-3′H,4H,7′H-spiro[isoxazole-5,6′-[2,7]methanopyrido[1,2-a][1,4]diazonin]-12′-yl heptanoate], the 50% effective concentration (EC50) with HIV-1 (IIIB) (setting [2]) was found to be 0.75 nM. In data set [1], the CC50 at 5 days came to 23700 nM.

Take `CCCCCCCC(=O)Oc1c2n(cc(C(=O)NCc3ccc(F)cc3F)c1=O)[C@@H]1CN(C2=O)[C@@H](C)CC[C@]12CC(OC)=NO2` [Example 40, (3′S,5S,7′R)-10′-((2,4-difluorobenzyl)carbamoyl)-3-methoxy-3′-methyl-1′,11′-dioxo-1′,4′,5′,11′-tetrahydro-3′H,4H,7′H-spiro[isoxazole-5,6′-[2,7]methanopyrido[1,2-a][1,4]diazonin]-12′-yl octanoate]: the EC50 in the data set on HIV-1 (IIIB) (setting [2]) turned out to be 0.592 nM. Also, the CC50 at 5 days in data set [1] stood at 25100 nM.

In the case of `CCCCCCCC(=O)Oc1c2n(cc(C(=O)NCc3ccc(F)cc3F)c1=O)[C@@H]1CN(C2=O)[C@@H](C)CC[C@]12CC(C)=NO2` [Example 41, (3′S,5S,7′R)-10′-((2,4-difluorobenzyl)carbamoyl)-3,3′-dimethyl-1′,11′-dioxo-1′,4′,5′,11′-tetrahydro-3′H,4H,7′H-spiro[isoxazole-5,6′-[2,7]methanopyrido[1,2-a][1,4]diazonin]-12′-yl octanoate], the EC50 with HIV-1 (IIIB) (setting [2]) was 0.319 nM. For the same compound, the cytotoxic concentration (CC50) at 5 days in data set [1] came to 11500 nM.

Turning to `CCCCCCCCC(=O)Oc1c2n(cc(C(=O)NCc3ccc(F)cc3F)c1=O)[C@@H]1CN(C2=O)[C@@H](C)CC[C@]12CC(OC)=NO2` [Example 42, (3′S,5S,7′R)-10′-((2,4-difluorobenzyl)carbamoyl)-3-methoxy-3′-methyl-1′,11′-dioxo-1′,4′,5′,11′-tetrahydro-3′H,4H,7′H-spiro[isoxazole-5,6′-[2,7]methanopyrido[1,2-a][1,4]diazonin]-12′-yl nonanoate], in the data set on HIV-1 (IIIB) (setting [2]), the EC50 is 1.94 nM. Besides, the half-maximal cytotoxic concentration (CC50) at 5 days in data set [1] came out at 40600 nM.
